Patent US20070275953A1 (priority 2003, published 2007)
Where two headings read alike, the source gives them in different places.

Tests used:
[1] = test system: HIV-1 mutant Cys181RT in TZM-bl cells; assay: Anti-HIV assay on TZM-bl cells, Cys181RT mutant; format: cell-based; conditions: read-out: EC50 Cys181RT TZM-bl
Excerpt: (§1) In order to introduce mutation(s) at the level of the pol gene coding for the RT in the pNL4-3 plasmid containing the complete viral genome (Adachi et al., 1986. J. Virol., Vol. 59 p 284-291) we used the “Quick change mutagenesis kit” (Stratagene). The following mutations were separately introduced in pNL4-3: L100I, K103N, V108I, Y181C, Y188C, and the double mutations K103N/V108I. These mutations were chosen because of the resistance that they confer to existing NNRTI. The production procedure of the mutant viral stocks is identical to the one described above.
(§2) Anti-HIV activity and cytotoxicity of the compounds were tested on the TZM-b1 cell line. The TZM-b1 cell line (Wei et al. 2002. Antimicrob. Agents Chemother. Vol. 46, p 1896-1905) was received from the NIH AIDS Research and Reference Reagent Program. These cells were cultured in complete DMEM medium supplemented with 10% fetal bovine serum (FBS), and 1% Penicillin/Streptomycin. Exponentially growing cells were trypsinized, centrifuged and split twice weekly at 5 10^4 cells/ml.
(§3) The anti-HIV assay with TZM-b1 cells is essentially the same as described above with P4 cells. The main difference between the two cell lines is that the TZM-b1 cells express at their surface both the CD4 and CCR5 proteins, acting as receptor and co-receptor for HIV entry, respectively (Wei et al. 2002. Antimicrob. Agents Chemother. Vol. 46, p 1896-1905). This feature makes the cells very sensitive to infection by the virus. The TMZ-b1 cells were infected with equal amount of cell-free virus, corresponding to 10 ng of HIV p24 antigen. This amount is ten times lower than the amount used to infect the P4 cells.

[2] = target: T1, HIV-1 reverse transcriptase (Human immunodeficiency virus type 1 group M subtype B, UniProt P04585); assay: HIV-1 in vitro reverse transcriptase activity (fixed-time RNA dependent DNA polymerase assay); format: biochemical; conditions: residual RT activity, compound at 10 μM; RT activity without compound set at 100%
T1 construct: fixed-time assay for HIV-1 reverse transcriptase RNA dependent DNA polymerase activity; RT was purchased from Calbiochem; purchased Calbiochem CAL382129-500
Experimental: For the in vitro inhibition studies of the HIV-1 reverse transcriptase activity, stock solutions of the compounds of the present invention were prepared in dimethyl sulfoxide at a final concentration of 10 mM and kept at room temperature. Nevirapine was purchased from Boehringer Ingelheim. Efavirenz was received from the NIH AIDS Research and Reference Reagent Program.
In vitro inhibition studies used a fixed-time assay for HIV-1 reverse transcriptase RNA dependent DNA polymerase activity. RT was purchased from Calbiochem (ref CAL382129-500). One unit of RT corresponds to the amount of enzyme which incorporates one nanomole of [^3H]TTP in 10 minutes at 37° C.
Assays were performed in a final volume of 50 μl. […] Reaction mixtures were incubated at 37° C. for 10 min. The incorporation rate was determined by a standard trichloroacetic acid precipitation procedure (adapted from Current protocols in molecular biology. Eds Wiley, MGH Harvard medical school) and liquid scintillation counting using a Wallac scintillation counter.
The in vitro activity of the compounds, at a final concentration of 10 μM, on the reverse transcriptase (RT) activity of HIV-1 is derivable from the relative (%) reduction in RT activity. Hereby, the RT activity in the absence of any of the compounds is set at 100%.

[3] = test system: HIV-1 with WT (wild type) RT in P4 cells; assay: Anti-HIV assay on P4 cell line, WT RT; format: cell-based; conditions: for EC50 / SI (selectivity index = CC50/EC50): P4 cell line, WT RT; for EC50: read-out: EC50 WT
Experimental: For the antiviral and the cytotoxicity assays, the drugs were diluted in complete DMEM medium. In these experiments, drugs were diluted in triplicate wells in a 96-well plate in six, 5 fold serial dilutions.
Two days later, co-cultivation with SupT1 cells (a human T-cell lymphoma cell line) was initiated to facilitate rapid production of progeny virions. Production of virus was measured by using the Innotest HIV Antigen mAb p24 kit (Innogenetics). At the peak of production cultures were harvested and filtered. The virus stocks were stored at −80° C. until used.
Anti-HIV activity and cytotoxicity of the compounds were tested on a P4 cell line. […] The P4 cells were cultured in complete DMEM medium supplemented with 10% fetal bovine serum (FBS), 0.5% of Penicillin/Streptomycin and G418 at 0.5 mg/ml. Exponentially growing cells were trypsinized, centrifuged and split twice weekly at 5.10^4 cells/ml.
The P4 cells are HIV-infectible Hela-CD4 cells that carry the bacterial lacZ gene under the control of the HIV-1 long terminal repeat (LTR). In this cell line, transcription of the LacZ gene is driven by the HIV-1 LTR. […] In other words, in this system, the expression level of the β-galactosidase gene is proportional to the viral replication.
Briefly, in the anti-HIV assay 100 Ål of P4 cells were plated in 96-well plate at a concentration of 0.4 10^5 cells/ml and incubated at 37° C., 5% CO2. After 48 h, the medium was removed and 100 Ål of the different drugs dilutions were added to the cells. Four hours after the addition of the drugs all cells were infected with equal amount of cell-free virus, corresponding to 100 ng of HIV p24 antigen. After 48 h of incubation at 37° C., 5% CO2, β-galactosidase activity was measured using chlorophenol red-β-D-galactopyranoside assays.
Each assay was performed a minimum of three times. The 50% effective concentration (Ec50) was calculated from each dose response curve using the CurveExpert 1.3 software.

[4] = test system: HIV-1 mutant Ile100RT in TZM-bl cells; assay: Anti-HIV assay on TZM-bl cells, Ile100RT mutant; format: cell-based; conditions: read-out: EC50 Ile100RT TZM-bl
Excerpt: as §1, §2, §3

[5] = Human immunodeficiency virus 1, TZM-bl

Row | Compound | EC50 ([1]; TZM-bl, mutant Cys181RT) [nM] | Relative (%) RT activity in vitro (compound added at 10 μM) [2] [%] | antiviral activity compared with Z37A or the mixture of stereoisomers [3] | EC50 [3] [nM] | EC50 [4, 5] [nM] | EC50 [1, 5] [nM] | EC50 ([3]; Human immunodeficiency virus 1) [nM] | SI (selectivity index = CC50/EC50) [3] | EC50 ([4]; TZM-bl, mutant Ile100RT) [nM]
1 | CCOC(=O)c1c(OC2CC(C)CC(C)C2)c(CC)c(C)[nH]c1=O (single isomer, unassigned) [Z37inv] | 2540 | 5.5 | higher than the activity observed for either Z37A or the mixture of stereoisomers | 36 |  |  |  |  | 
2 | O=C1Nc2ccc(Cl)cc2[C@@](C#CC2CC2)(C(F)(F)F)O1 [Efavirenz, reference compound] |  |  |  |  | 17 | < 1 | < 1 |  | 
3 | Cc1ccnc2c1NC(=O)c1cccnc1N2C1CC1 [Nevirapine, reference compound] |  | 16.7 |  |  | 50 | 8300 | 29 | 3448 | 
4 | CCc1c(C)[nH]c(=O)c(CO)c1OC1CC(C)CC(C)C1 (centres unmarked) [Z45inv] | 3200 | 12.1 |  | 23 |  |  |  |  | 382
5 | CCc1c(C)[nH]c(=O)c([N+](=O)[O-])c1OC1CC(C)CC(C)C1 (centres unmarked) [Z91inv, 3-nitro-5-ethyl-6-methyl-4-[(3,5-dimethylcyclohexyl)oxy]pyridine-2(1H)-one] |  | 0 |  |  | 2 | 58 | < 1 | >37200 | 
6 | CCc1c(C)[nH]c(=O)c(CSC(C)=O)c1OC1CC(C)CC(C)C1 (centres unmarked) [Z114] | 411 | 0 |  | 7 |  |  |  |  | 77
7 | CCc1c(C)[nH]c(=O)c(N(C)C)c1OC1CC(C)CC(C)C1 (centres unmarked) [Z150, 3-(dimethylamino)-5-ethyl-6-methyl-4-[(3,5-dimethylcyclohexyl)oxy]pyridine-2(1H)-one] |  | 0.9 |  |  | 20 | 86 | < 1 | >66000 | 
8 | CCc1c(C)[nH]c(=O)c(CN=[N+]=[N-])c1OC1CC(C)CC(C)C1 (centres unmarked) [Z153] | 83 | 0.7 |  | < 1 |  |  |  |  | 29
9 | CCc1c(C)[nH]c(=O)c(C)c1OC1CC(C)CC(C)C1 (centres unmarked) [Z154] | 288 | 1.6 |  | < 1 |  |  |  |  | 40
